According to patent US6017932A, “Pharmaceutical compositions containing at least one NSAID having increased bioavailability” (priority 1996, dated 2000):
“Also recorded” adds a separate entry of the source. Read-outs that look alike come from different tables or passages of the source.

What was measured:
[1] = cited from earlier work
[2] = tested on: histamine release, neutrophil myeloperoxidase pathway, bradykinin activity, phosphodiesterase type IV and others; details: in words; cited from earlier work
[3] = cited from earlier work; for effect of Piperine on bio-availability (in words): with Piperine; for mean increase in AUC: formulations with Piperine vs without
[4] = tested on: renal prostaglandin synthesis; details: rats; cited from earlier work
plasma proteins = details: human; cited from earlier work
[5] = relative to other NSAIDs; cited from earlier work
[6] = tested on: painful inflammatory conditions; details: cited from earlier work
[7] = cited from earlier work; remark: listed apart in the source
yeast-induced fever = details: rats with yeast-induced fever; cited from earlier work
in vivo = details: rat, plasma, po, 10 mg/kg
Description: The single test point pharmacokinetic studies were performed in two groups of rats. […] Rats were sacrificed at 90 minutes. post treatment and blood samples were analysed by HPLC.

[8] = Plasma levels of Nimesulide in rats after composition with/without Piperine (Experiment I); type: in vivo, albino rats
Description: The rats were housed 5 per cage with food and water provided ad libidum.
On the day of experimentation the rats were randomised into ten batches of 5 rats each. Four groups were formed. Group I consisted of one batch of 5 rats, which was kept as control which received no drug treatment. Group II consisted of four batches of five rats each. […] Rats of batch I from Group II were sacrificed 60 minutes post treatment after Chloroform anaesthesia. Batch 2,3 and 4 were similarly sacrificed at 120 min., 240 min. and 360 min. post treatment respectively. Blood was collected from the rats from the ventricle into heparinised tubes.
Group III consisted of one batch of 5 rats, which received only Piperine at a dose level of 1.0 mg/kg body wt. The animals were sacrificed 160 minutes post treatment after Chloroform anaesthesia. Blood was collected from the rats from the ventricle into heparinised tubes.
Group IV consisted of 4 batches of 5 rats each. […] Rats of batch 1 from Group IV were sacrificed 60 minutes post treatment after Chloroform anaesthesia. Batch 2, 3 and 4 were similarly sacrificed at 120 min., 240 min. and 360 min. post treatment respectively. Blood was collected from the rats from the ventricle into heparinised tubes.
The blood samples were centrifuged at 3700 rpm and the plasma separated. To 1 ml plasma 0.5 ml of HCl was added and then extracted with 2 ml of benzene. Extracted benzene was evaporated in a water bath at 95° C. and reconstituted with 100 μl of mobile phase and 10 μl was injected into the HPLC.
Waters HPLC fitted with C8 μ Bondapack was used along with Waters UV-Vis detector (254 nm). Acetonitrile 50% with 50% Ammonium di-hydrogen Phosphate (0.01M) in double distilled, filtered (0.22 μ) water was used as the mobile phase.
Unpaired student T test was applied on the data. Level of significance was fixed at p<0.05.

[9] = rectal, nimesulide 100 and 200 mg; cited from earlier work
[10] = in words; cited from earlier work
COX-II = details: vs COX-I; cited from earlier work
[11] = oral, 50 to 200 mg nimesulide, healthy adult volunteers

Which accumulation ([1]; patients with moderate renal impairment) does the source give for `CS(=O)(=O)Nc1ccc([N+](=O)[O-])cc1Oc1ccc(O)cc1` [4-hydroxy-nimesulide] here?
Its accumulation is “Slight accumulation”.

And the other effects [2]?
The other effects was “appears to contribute to the anti-inflammatory activity”.

With `CC[C@@H](CO)NCCN[C@@H](CC)CO` [Ethambutol] as the compound, how does the “effect of Piperine on bio-availability (in words)” value [3] read?
Its value is “increase bio-availability”.

For `CCCCNC(=O)NS(=O)(=O)c1ccc(C)cc1` [tolbutamide], which “effect of Piperine on bio-availability (in words)” value [3] is on record?
The value was “no effect on enhancing the bio-availability”.

Which “effect on renal prostaglandin synthesis” value [4] does the source give for `CS(=O)(=O)Nc1ccc([N+](=O)[O-])cc1Oc1ccccc1` [Nimesulide, N-(4-nitro, 2-phenoxyphenyl) methanesulfonamide] here?
The value was “little effect on renal prostaglandin synthesis in rats”.

What about the “bound to plasma proteins” value (plasma proteins) of the same compound?
Its value is 99%.

What about the “ulcerogenicity / gastric tolerance” value [5] of the same compound?
Its value is “less ulcerogenic than aspirin, indomethacin, naproxen, piroxicam and ibuprofen; also recorded: better gastric tolerance than other commonly used NSAIDs”.

And the “pharmacokinetic profile in special populations” value ([1]; children, elderly volunteers, moderately impaired renal function (creatinine clearance 1.8 to 4.8 L/h))?
Its value is “not significantly altered”.

What about the onset of analgesia ([6]; human, in vivo) of the same compound?
The onset of analgesia was “rapid onset of analgesia”.

What about the “efficacy in cancer pain” value ([6]; in words) of the same compound?
Its value is “highly efficaceous in cancer pain”.

What about the “clinical efficacy vs placebo” value ([6]; oral mostly 200 mg/day or rectal 400 mg/day) of the same compound?
The value was “more effective than placebo”.

What about the “clinical efficacy vs other NSAIDs” value ([6]; vs piroxicam, ketoprofen, naproxen, etodolac, mefenamic acid, diclofenac and others) of the same compound?
Its value is “at least as effective as therapeutic dosages of other NSAIDs”.

And the other effects [2]?
Its other effects is “appears to exert its effects on histamine release, the neutrophil myeloperoxidase pathway, bradykinin activity, tumour necrosis factor-a release, cartilage degradation, metalloprotease synthesis, phosphodiesterase type IV inhibition, platelet aggregation and synthesis of platelet activating factor”.

What about the “effect of food on absorption” value ([7]; concomitant administration of food) of the same compound?
Its value is “may decrease the rate, but not the extent, of absorption”.

What about the “apparent volume of distribution” value ([7]; following oral administration) of the same compound?
Its value is 0.19 to 0.35 L/kg.

And the “dose excreted unchanged in the urine” value ([7]; human, in vivo, po)?
Its value is 1 to 3%.

And the biotransformation ([7]; in words)?
Its biotransformation is “almost completely biotransformed into 4-hydroxy-nimesulide”.

And the oral drug absorption ([7]; in words)?
Its oral drug absorption is “nearly complete”.

And the peak serum concentrations [7, 11]?
Its peak serum concentrations is 1.98 to 9.85 mg/L.

And the “time to peak serum concentration” value [7, 11]?
Its value is 1.22 to 3.17 h.

What about the elimination half-life ([7]; parent compound) of the same compound?
Its elimination half-life is 1.56 to 4.95 h.

What about the antipyretic potency (yeast-induced fever) of the same compound?
Its antipyretic potency is “superior antipyretic potency to indomethacin, ibuprofen, aspirin and paracetamol (acetaminophen)”.

And the concentration at 1.5 h (in vivo)?
The concentration at 1.5 h was 8820 µg/mL.

What about the “Concentration of the drug in plasma” value ([8]; 240 min, Nimesulide alone 1.8 mg/kg) of the same compound?
Its value is 4.6 ± 1.4 kg/mL.

What about the concentration at 1 h ([8]; rat, plasma, po, 1.8 mg/kg) of the same compound?
Its concentration at 1 h is 5800 ± 1700 µg/mL.

What about the concentration at 2 h ([8]; rat, plasma, po, 1.8 mg/kg) of the same compound?
The concentration at 2 h was 7900 ± 2300 µg/mL.

And the concentration at 4 h ([8]; rat, plasma, po, 1.8 mg/kg)?
Its concentration at 4 h is 4600 ± 1400 µg/mL.

What about the concentration at 6 h ([8]; rat, plasma, po, 1.8 mg/kg) of the same compound?
Its concentration at 6 h is 2200 ± 1100 µg/mL.

What about the peak serum concentrations [9] of the same compound?
Its peak serum concentrations is 2.14 to 2.32 mg/L.

And the “time to peak serum concentration” value [9]?
Its value is 3 to 4.58 h.

Which “mean increase in AUC” value [3] does the source give for `NNC(=O)c1ccncc1` [Isoniazid] here?
The value was 131%.

With `O=C(/C=C/C=C/c1ccc2c(c1)OCO2)N1CCCCC1` [Piperine, (E, E) 1-[5-(1,3-benzodioxyl-5-yl)-1-oxo-2,4-pentadenyl] piperidine] as the compound, how does the solubility / insolubility [10] read?
The solubility / insolubility was “soluble in benzene, chloroform, ether, ethyl acetate, dichloromethane, alcohol, acetic acid and insoluble in water, pet. ether”.

What about the “Plasma levels of Nimesulide” value ([8]; 120 min. post treatment, Nimesulide 1.8 mg/kg with or without Piperine 1.0 mg/kg, oral, rats) of the same compound?
The value was “Nil”.

Which “mean increase in AUC” value [3] does the source give for `CO[C@H]1/C=C/O[C@@]2(C)Oc3c(C)c(O)c4c(O)c(c(/C=N/N5CCN(C)CC5)c(O)c4c3C2=O)NC(=O)/C(C)=C\C=C\[C@H](C)[C@H](O)[C@@H](C)[C@@H](O)[C@@H](C)[C@H](OC(C)=O)[C@@H]1C` [Rifampicin] here?
The value was 37.6%.

Which “mean increase in AUC” value [3] does the source give for `NC(=O)c1cnccn1` [Pyrazinamide] here?
Its value is 36%.

With `COc1ccc2cc(CCC(C)=O)ccc2c1` [Nabumetone] as the compound, how does the “COX-II selectivity (in words)” value (COX-II) read?
Its value is “selectively inhibit the detrimental COX-II”.
